In patent US20080161336A1, “Orally bioavailable CCI-779 formulations” (Wyeth, priority 2005, published 2008):

Key:
[1] = Bioavailability study: safety (adverse events, laboratory abnormalities, vital signs); type: in vivo, human
Text: On day 1 of each of the 3 study periods, the subjects received a single oral dose of 1 of 4 treatments (treatments A, B, C, or reference).
On day 1 of each of the 3 study periods, the subjects received a single oral dose of 1 of 4 treatments (A, B, C, or reference).

Water solubility = type: physicochemical
[2] = Partition coefficient in 1-octanol/water system; type: physicochemical
[3] = BCS classification system; type: physicochemical
[4] = Stability of CCI-779 (aqueous, oxidation, hydroalcoholic granulation solution); type: physicochemical
Text: One obstacle towards the formulation of CCI-779 is its poor aqueous dissolution and low oral bioavailability. […] A CCI-779 formulation was developed that employed a wet granulation manufacturing process. See US Published Patent Application No. US-2004-0077677-A1. This process involved preparation of a hydroalcoholic granulation solution of CCI-779. Further, although the resulting tablets were stable and bioavailable, the preparation of the hydroalcoholic solution was very tedious.

[5] = test system: histologically diverse tumor cells; details: in vitro, cited from earlier work

Compound: COC1C[C@@H]2CC[C@@H](C)[C@@](O)(O2)C(=O)C(=O)N2CCCC[C@H]2C(=O)O[C@H]([C@H](C)CC2CC[C@@H](OC(=O)C(C)(CO)CO)[C@H](OC)C2)CC(=O)[C@H](C)/C=C(\C)[C@@H](O)[C@@H](OC)C(=O)[C@H](C)C[C@H](C)/C=C/C=C/C=C/1C (stereo partly drawn) [CCI-779, Rapamycin 42-ester with 3-hydroxy-2-(hydroxymethyl)-2-methylpropionic acid]
- severity of treatment-emergent AEs ([1]; all 45 treatment-emergent AEs): mild
- subjects with aminotransferase elevations ([1]; all treatments, 4 subjects): 10%
- subjects with white blood cells in the urine ([1]; all treatments, 5 subjects): 13%
- deaths or other serious adverse events ([1]; during the study): No deaths or other serious adverse events occurred
- vital sign measurements, electrocardiogram results, physical examination findings ([1]; in vivo): No clinically significant trends
- subjects with clinically significant laboratory abnormalities after dose administration ([1]; number of subjects, all treatments): 13
- AEs considered by the investigator to be related to CCI-779 treatment ([1]; number of the 45 AEs): 16
- subjects with at least 1 treatment-emergent adverse event (AE) ([1]; of the 40 subjects who received CCI-779, all treatments): 48%
- solubility (Water solubility): < 1 µg/mL
- Log PC [2]: ≥ 4.1
- BCS classification [3]: class II
- aqueous stability [4]: aqueous instability
- stability of hydroalcoholic granulation solution of CCI-779 ([4]; after its preparation): precipitating within one day
- growth of tumor cells ([5]; CNS cancer, leukemia (T-cell), breast cancer, prostate cancer, melanoma lines among the most sensitive): inhibit the growth
- cell cycle effect [5]: arrested cells in the G1 phase
